Measured values taken from patent publication US11833139B2 (priority 2019, dated 2023).
Read-outs that look alike come from different tables or passages of the source.

What was measured:
A. baumannii HUMC1 = assay: MIC by broth microdilution (CLSI), carbapenem-resistant clinical isolate HUMC1; format: cell-based, Acinetobacter baumannii; details: Acinetobacter baumannii, read-out: MIC
Method: (§1) Two A. baumannii isolates were used in this example: HUMC1 (BV374) (Spellberg/Luna Laboratory, University of Southern California, Los Angeles, Calif.) and UNT091-1 (BV378) (UNT Health Science Center, Fort Worth, Tex.). The HUMC1 isolate is a hyper-virulent drug-resistant clinical strain isolated from a blood-stream infection. […] The isolates were stored at −80° C. as 20% (v/v) glycerol cultures.
(§2) MICs were determined by the broth microdilution method following the guidelines of the Clinical Laboratory Standards Institute (CLSI) using RPMI supplemented with […] cationic-adjusted Muller Hinton broth (CA-MHB) as assay medium. To prepare the bacterial inocula, 3-5 colonies of bacterial strains from over-night growth on ChromAgar orientation plates (CHROMagar Cat. No. RT412) were suspended in 5 mL saline. The turbidity of the bacterial suspension was adjusted to 0.5 McFarland units (equal to an optical density at 610 nm (OD610) to 0.08-0.1). This suspension was diluted 200-fold in RPMI supplemented with 10% (v/v) FCS to reach a final concentration of […] colony forming units (CFU)/mL and was used to inoculate the microtiter plates.
(§3) Serial 2-fold dilutions of the antibiotics were prepared in a separate 96-well plate polypropylene U-bottom plate (Ratiolab Cat. No. 6018111) in RPMI supplemented with 10% (v/v) FCS at 10-fold of the final test concentrations and 10 μl of the dilutions were transferred to new 96-well polystyrene U-bottom microtiter plates with a parafilm plate cover.
(§4) The plates were then inoculated with 90 μL per well of the prepared bacterial suspensions in using a multichannel pipette (Eppendorf), with the first column containing 4 wells each for growth control (no antibiotic). […] The MIC was recorded as the lowest concentration of the compound that inhibited bacterial growth by visual inspection. MICs were determined at least in duplicates and in the case of variations, the higher values are provided.

A. baumannii UNT091 = assay: MIC by broth microdilution (CLSI), carbapenem-resistant clinical isolate UNT091; format: cell-based, Acinetobacter baumannii; details: Acinetobacter baumannii, read-out: MIC
Method: as §1, §2, §3, §4

[1] = HUMC1, HUMC1, RPMI plus 10% FCS (Table 1)
[2] = UNT091, UNT091, CA-MHB (Table 1)
[3] = UNT091, UNT091, RPMI plus 10% FCS (Table 1)

MIC (A. baumannii HUMC1; HUMC1, HUMC1, CA-MHB (Table 1)) [µg/mL]	MIC (A. baumannii HUMC1; [1]) [µg/mL]	MIC (A. baumannii UNT091; [2]) [µg/mL]	MIC (A. baumannii UNT091; [3]) [µg/mL]	Compound
> 64	> 64	> 64	> 64	CO/N=C(\C(=O)N[C@@H]1C(=O)N2C(C(=O)O)=C(COC(C)=O)CS[C@H]12)c1csc(N)n1 [cefotaxime]
> 16	> 16	> 16	> 16	C[C@@H](O)[C@H]1C(=O)N2C(C(=O)O)=C(S[C@@H]3CN[C@H](C(=O)N(C)C)C3)[C@H](C)[C@H]12 [meropenem]
